The values below come from PMC10175918 (Communications Biology, 2023).

Holding throughout (assay): TGFα-shedding assay-based GPCR screening with chimeric Gα subunit proteins
What all share (format): cell-based

In assay [1] the target is T1, 348 GPCRs (Homo sapiens, UniProt P41968).
T1 construct: expressed in transfected cells; host or cells: HEK293A

Assay [2] addresses T2, 348 GPCRs (Homo sapiens, UniProt P50406).
T2 construct: expressed in transfected cells; host or cells: HEK293A
Conditions: 10µM, Favipiravir 100μM.

Assay [3] has as its target 348 GPCRs (Homo sapiens, UniProt O60894). Conditions: 10µM, Favipiravir 100μM.
Assay [4] addresses T3, 348 GPCRs (Homo sapiens, UniProt Q9NZD1).
T3 construct: expressed in transfected cells; host or cells: HEK293A
The note with it: 10µM, Favipiravir 100μM.

The target of assay [5] is T4, 348 GPCRs (Homo sapiens, UniProt O75388).
T4 construct: expressed in transfected cells; host or cells: HEK293A
T4 sequence (O75388 whole entry): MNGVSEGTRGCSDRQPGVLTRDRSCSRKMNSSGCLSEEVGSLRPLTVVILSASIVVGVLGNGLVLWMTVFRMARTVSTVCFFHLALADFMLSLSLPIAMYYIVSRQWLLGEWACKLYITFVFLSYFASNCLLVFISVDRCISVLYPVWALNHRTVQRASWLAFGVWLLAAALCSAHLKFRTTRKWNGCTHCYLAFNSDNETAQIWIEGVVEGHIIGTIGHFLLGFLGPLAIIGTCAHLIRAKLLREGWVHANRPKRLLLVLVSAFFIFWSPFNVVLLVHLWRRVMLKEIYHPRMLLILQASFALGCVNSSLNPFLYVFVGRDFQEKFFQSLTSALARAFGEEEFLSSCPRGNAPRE
Conditions: 10µM, Favipiravir 100μM.

Assay [6] addresses T5, 348 GPCRs (Homo sapiens, UniProt Q96P69).
T5 construct: expressed in transfected cells; host or cells: HEK293A
The note with it: 10µM, Favipiravir 100μM.

Assay [7] has as its target T6, 348 GPCRs (Homo sapiens, UniProt Q9UNW8).
T6 construct: expressed in transfected cells; host or cells: HEK293A
T6 sequence (Q9UNW8 1-380): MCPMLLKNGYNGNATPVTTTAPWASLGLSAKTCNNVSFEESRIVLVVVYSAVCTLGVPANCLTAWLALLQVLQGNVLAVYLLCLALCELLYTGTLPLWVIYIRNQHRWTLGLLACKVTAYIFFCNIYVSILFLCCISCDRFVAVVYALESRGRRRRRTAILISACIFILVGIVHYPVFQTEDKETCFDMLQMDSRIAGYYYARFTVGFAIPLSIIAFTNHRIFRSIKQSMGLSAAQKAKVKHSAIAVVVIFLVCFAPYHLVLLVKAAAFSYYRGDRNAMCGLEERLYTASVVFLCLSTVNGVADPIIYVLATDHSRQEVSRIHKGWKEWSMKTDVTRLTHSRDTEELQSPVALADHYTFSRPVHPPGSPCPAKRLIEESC
The note with it: G2A (GPR132); 10µM, Favipiravir 100μM.

Assay [8] deals with T7, 348 GPCRs (Homo sapiens, UniProt Q5NUL3).
T7 construct: expressed in transfected cells; host or cells: HEK293A
T7 sequence (Q5NUL3 1-361): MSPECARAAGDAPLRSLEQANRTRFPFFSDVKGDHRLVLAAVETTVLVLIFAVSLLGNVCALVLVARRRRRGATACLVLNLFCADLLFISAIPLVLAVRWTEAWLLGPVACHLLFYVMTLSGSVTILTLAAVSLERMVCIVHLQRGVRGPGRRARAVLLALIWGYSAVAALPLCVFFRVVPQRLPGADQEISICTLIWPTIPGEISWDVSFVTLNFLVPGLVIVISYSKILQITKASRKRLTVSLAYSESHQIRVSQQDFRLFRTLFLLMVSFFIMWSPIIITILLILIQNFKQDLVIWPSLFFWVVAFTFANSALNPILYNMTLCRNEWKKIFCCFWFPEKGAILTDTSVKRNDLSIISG

The target of assay [9] is T8, 348 GPCRs (Homo sapiens, UniProt Q5T601).
T8 construct: expressed in transfected cells; host or cells: HEK293A
T8 sequence (Q5T601 20-910): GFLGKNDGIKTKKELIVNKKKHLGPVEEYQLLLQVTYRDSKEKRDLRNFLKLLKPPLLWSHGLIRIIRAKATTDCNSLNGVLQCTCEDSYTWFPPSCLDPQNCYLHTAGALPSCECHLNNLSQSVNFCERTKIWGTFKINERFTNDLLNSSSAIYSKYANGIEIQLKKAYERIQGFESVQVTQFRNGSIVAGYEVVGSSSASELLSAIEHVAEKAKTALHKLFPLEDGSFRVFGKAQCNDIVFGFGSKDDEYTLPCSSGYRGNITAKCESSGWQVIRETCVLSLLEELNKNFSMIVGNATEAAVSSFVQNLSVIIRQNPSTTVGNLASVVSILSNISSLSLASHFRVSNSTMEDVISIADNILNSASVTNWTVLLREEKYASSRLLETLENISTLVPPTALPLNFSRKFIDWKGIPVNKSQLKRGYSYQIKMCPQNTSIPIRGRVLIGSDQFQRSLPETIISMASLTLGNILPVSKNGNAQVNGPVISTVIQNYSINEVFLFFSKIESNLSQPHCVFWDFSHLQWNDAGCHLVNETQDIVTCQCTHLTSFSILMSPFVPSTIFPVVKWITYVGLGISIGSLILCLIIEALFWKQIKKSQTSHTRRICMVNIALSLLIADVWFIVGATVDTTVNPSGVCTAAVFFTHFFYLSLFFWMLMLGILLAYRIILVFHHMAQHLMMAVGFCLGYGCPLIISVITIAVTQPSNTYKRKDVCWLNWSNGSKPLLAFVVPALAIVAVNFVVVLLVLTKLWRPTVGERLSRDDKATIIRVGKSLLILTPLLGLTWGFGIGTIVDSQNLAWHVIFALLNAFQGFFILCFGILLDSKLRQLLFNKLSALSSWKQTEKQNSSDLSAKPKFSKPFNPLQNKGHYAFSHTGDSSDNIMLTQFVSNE

For assay [10], the target named is T9, 348 GPCRs (Homo sapiens, UniProt Q8N6U8).
T9 construct: expressed in transfected cells; host or cells: HEK293A
T9 sequence (Q8N6U8 whole entry): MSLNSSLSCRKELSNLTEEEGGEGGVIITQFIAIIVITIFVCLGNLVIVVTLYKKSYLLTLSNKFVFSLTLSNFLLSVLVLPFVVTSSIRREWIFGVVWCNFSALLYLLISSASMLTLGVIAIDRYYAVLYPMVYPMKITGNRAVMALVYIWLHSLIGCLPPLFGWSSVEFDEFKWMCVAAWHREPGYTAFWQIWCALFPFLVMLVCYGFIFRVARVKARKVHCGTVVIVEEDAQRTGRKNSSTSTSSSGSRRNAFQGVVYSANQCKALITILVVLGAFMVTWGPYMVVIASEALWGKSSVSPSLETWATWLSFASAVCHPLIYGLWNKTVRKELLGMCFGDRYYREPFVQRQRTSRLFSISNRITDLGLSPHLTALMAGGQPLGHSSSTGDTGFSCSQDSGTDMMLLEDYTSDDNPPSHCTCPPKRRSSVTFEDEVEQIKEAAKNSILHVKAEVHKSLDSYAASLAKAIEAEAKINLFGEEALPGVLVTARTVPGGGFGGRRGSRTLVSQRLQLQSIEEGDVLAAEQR
Conditions: 10µM, Favipiravir 100μM.

For assay [11], the target named is T10, 348 GPCRs (Homo sapiens, UniProt Q8TDV2).
T10 construct: expressed in transfected cells; host or cells: HEK293A
T10 sequence (Q8TDV2 whole entry): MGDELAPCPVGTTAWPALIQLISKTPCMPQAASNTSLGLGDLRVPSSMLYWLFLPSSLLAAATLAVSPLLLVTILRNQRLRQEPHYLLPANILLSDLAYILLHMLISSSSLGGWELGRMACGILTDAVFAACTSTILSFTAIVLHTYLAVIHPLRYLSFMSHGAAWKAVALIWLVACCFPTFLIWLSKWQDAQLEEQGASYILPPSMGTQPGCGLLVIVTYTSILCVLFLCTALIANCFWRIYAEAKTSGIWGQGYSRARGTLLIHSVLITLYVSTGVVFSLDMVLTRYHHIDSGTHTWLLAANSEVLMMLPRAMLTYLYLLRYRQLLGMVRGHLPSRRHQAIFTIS
The note with it: 10µM, Favipiravir 100μM.

Assay [12] addresses T11, 348 GPCRs (Homo sapiens, UniProt Q8IZ08).
T11 construct: expressed in transfected cells; host or cells: HEK293A
The note with it: 10µM, Favipiravir 100μM.

Where [13] appears, read: 5-HT6 (5-hydroxytryptamine receptor 6), read-out: % GPCR activation compared to TPA.
Where [14] appears, read: RAMP1 (receptor-activity-modifying protein 1), read-out: % GPCR activation compared to TPA.
The mark [15] stands for this setting: GPRC5D (G protein-coupled receptor class C group 5 member D), read-out: % GPCR activation compared to TPA.
Setting [16] is: GPR32 (G protein-coupled receptor 32), read-out: % GPCR activation compared to TPA.
The mark [17] stands for this setting: GPR78 (G Protein-Coupled Receptor 78), read-out: % GPCR activation compared to TPA.
[18] abbreviates: FFA4 (free fatty acid receptor 4), Favipiravir 100μM, read-out: % GPCR activation compared to TPA.
Where [19] appears, read: GPR161 (G protein-coupled receptor 161), read-out: % GPCR activation compared to TPA.
The mark [20] stands for this setting: GPR148 (G Protein-Coupled Receptor 148), read-out: % GPCR activation compared to TPA.
[21] abbreviates: GPR135 (G Protein-Coupled Receptor 135), read-out: % GPCR activation compared to TPA.
Setting [22] is: read-out: % GPCR activation compared to TPA, GPCR MC3R (melanocortin 3 receptor).
Where [23] appears, read: read-out: % GPCR activation compared to TPA, 5-HT6 (5-hydroxytryptamine receptor 6).
Where [24] appears, read: read-out: % GPCR activation compared to TPA, RAMP1 (receptor-activity-modifying protein 1).
Where [25] appears, read: read-out: % GPCR activation compared to TPA, GPRC5D (G protein-coupled receptor class C group 5 member D).
The mark [26] stands for this setting: read-out: % GPCR activation compared to TPA, GPR32 (G protein-coupled receptor 32).
[27] abbreviates: read-out: % GPCR activation compared to TPA, GPR78 (G Protein-Coupled Receptor 78).
Setting [28] is: read-out: % GPCR activation compared to TPA, FFA4 (free fatty acid receptor 4), Favipiravir 100μM.
The mark [29] stands for this setting: read-out: % GPCR activation compared to TPA, GPCR GPR120 (Free Fatty Acid Receptor 4 (FFAR4)).
The mark [30] stands for this setting: read-out: % GPCR activation compared to TPA, GPCR GPR110 (G-protein-coupled receptor 110 (ADGRF1)).
[31] abbreviates: read-out: % GPCR activation compared to TPA, GPR161 (G protein-coupled receptor 161).
The mark [32] stands for this setting: read-out: % GPCR activation compared to TPA, GPR148 (G Protein-Coupled Receptor 148).
Where [33] appears, read: read-out: % GPCR activation compared to TPA, GPR135 (G Protein-Coupled Receptor 135).
Where [34] appears, read: GPCR MC3R (melanocortin 3 receptor), read-out: % GPCR activation compared to TPA.
Where [35] appears, read: GPCR GPR120 (Free Fatty Acid Receptor 4 (FFAR4)), read-out: % GPCR activation compared to TPA.
[36] abbreviates: GPCR GPR110 (G-protein-coupled receptor 110 (ADGRF1)), read-out: % GPCR activation compared to TPA.

Like-named read-outs stand apart in the source and are kept apart here.

T5 sequence (Q96P69 whole entry): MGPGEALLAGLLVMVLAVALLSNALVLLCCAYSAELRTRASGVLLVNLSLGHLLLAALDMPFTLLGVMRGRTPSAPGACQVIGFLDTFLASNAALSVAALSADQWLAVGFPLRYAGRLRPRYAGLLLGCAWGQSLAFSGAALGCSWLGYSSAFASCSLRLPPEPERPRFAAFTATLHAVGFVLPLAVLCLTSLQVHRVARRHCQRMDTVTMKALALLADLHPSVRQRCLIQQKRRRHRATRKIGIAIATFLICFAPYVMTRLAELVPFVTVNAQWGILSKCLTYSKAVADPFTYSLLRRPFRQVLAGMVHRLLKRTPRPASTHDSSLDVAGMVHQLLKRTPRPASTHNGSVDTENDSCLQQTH
T11 sequence (Q8IZ08 whole entry): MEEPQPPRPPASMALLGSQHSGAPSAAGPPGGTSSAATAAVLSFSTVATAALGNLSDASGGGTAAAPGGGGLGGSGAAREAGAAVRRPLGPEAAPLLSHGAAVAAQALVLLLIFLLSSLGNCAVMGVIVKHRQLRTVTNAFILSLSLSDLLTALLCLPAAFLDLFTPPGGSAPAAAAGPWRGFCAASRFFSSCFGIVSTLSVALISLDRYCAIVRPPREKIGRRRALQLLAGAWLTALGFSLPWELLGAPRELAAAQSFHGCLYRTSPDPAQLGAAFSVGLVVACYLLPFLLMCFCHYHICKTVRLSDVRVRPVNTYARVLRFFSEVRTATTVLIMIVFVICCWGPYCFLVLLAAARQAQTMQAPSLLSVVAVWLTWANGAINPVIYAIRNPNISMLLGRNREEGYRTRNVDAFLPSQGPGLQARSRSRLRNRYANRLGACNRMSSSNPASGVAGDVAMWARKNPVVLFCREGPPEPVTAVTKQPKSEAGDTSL
Chain of 348 GPCRs (Homo sapiens, UniProt O60894) (O60894 27-148): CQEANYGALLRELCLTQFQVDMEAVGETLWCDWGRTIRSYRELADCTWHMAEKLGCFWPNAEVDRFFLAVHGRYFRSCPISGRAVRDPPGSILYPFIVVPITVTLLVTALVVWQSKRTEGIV
T2 sequence (P50406 whole entry): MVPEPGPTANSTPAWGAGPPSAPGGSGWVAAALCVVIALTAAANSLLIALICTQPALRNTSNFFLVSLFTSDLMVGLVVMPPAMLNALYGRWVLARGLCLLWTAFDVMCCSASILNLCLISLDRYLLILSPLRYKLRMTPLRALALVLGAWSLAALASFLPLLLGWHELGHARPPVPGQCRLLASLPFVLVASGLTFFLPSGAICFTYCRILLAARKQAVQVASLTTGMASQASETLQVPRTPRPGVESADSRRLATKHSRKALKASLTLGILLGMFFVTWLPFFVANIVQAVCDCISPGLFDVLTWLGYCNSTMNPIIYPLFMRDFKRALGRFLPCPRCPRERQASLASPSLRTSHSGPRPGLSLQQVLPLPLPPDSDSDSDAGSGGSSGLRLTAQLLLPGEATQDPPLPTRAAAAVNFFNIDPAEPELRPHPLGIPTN
T3 sequence (Q9NZD1 whole entry): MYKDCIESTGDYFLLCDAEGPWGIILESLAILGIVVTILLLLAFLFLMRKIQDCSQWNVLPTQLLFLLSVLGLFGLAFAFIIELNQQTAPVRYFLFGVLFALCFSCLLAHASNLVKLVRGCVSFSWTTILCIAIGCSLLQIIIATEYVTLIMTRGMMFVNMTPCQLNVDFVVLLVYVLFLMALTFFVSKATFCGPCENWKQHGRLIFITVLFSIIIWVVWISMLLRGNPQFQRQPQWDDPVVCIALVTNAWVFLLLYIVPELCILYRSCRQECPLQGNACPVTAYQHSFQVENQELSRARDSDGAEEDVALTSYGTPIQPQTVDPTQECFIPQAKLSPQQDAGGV
T1 sequence (P41968 whole entry): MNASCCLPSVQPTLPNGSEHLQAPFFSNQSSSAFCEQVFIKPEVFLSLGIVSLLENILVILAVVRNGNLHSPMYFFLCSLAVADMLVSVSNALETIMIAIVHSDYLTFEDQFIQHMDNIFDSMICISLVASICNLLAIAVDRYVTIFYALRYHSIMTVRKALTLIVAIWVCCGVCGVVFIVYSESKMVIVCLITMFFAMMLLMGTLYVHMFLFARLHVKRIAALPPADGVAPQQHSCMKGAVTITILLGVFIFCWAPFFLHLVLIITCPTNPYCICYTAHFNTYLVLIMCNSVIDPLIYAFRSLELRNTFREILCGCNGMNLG

Turning to `NC(=O)c1nc(F)cnc1O` [favipiravir, 6-fluoro-3-hydroxy-2-pyrazinecarboxamide], the activation at 100 µM in [1] (GPCR MC3R (melanocortin 3 receptor), 100μM, read-out: % GPCR activation compared to TPA) is 0.3%; in assay [2] (setting [13]), -1.66%; in [3] (setting [14]), -0.805%; in [6] (setting [17]) it was -0.429%; in assay [8] (GPCR GPR120 (Free Fatty Acid Receptor 4 (FFAR4)), 100μM, read-out: % GPCR activation compared to TPA), -1.72%; in [9] (GPCR GPR110 (G-protein-coupled receptor 110 (ADGRF1)), 100μM, read-out: % GPCR activation compared to TPA) it was -3.88%. In addition, the activation at 100 µM is -3.11% in assay [11] (setting [20]) and -0.994% in assay [12] (setting [21]). Further, the activation at 10 µM is -2.09% in [4] (setting [15]), 0.0718% in [5] (setting [16]), -8.27% in [8] (setting [18]) and -0.46% in [10] (setting [19]). The “% GPCR activation compared to TPA” value in assay [7] is 7.4%.
Turning to `CC(C)OC(=O)[C@H](C)N[P@](=O)(OC[C@H]1O[C@@H](n2ccc(=O)[nH]c2=O)[C@](C)(F)[C@@H]1O)Oc1ccccc1` [sofosbuvir], the activation at 10 µM was -3.13% in assay [1] (setting [22]); 0.492% in assay [4] (setting [25]); -3.92% in [5] (setting [26]); -2.55% in assay [8] (setting [28]); -1.1% in assay [8] (setting [29]); 0.252% in assay [9] (setting [30]). For the same compound, in [10] (setting [31]), the activation at 10 µM is -5.59%. The activation at 100 µM in assay [2] (setting [23]) was -1.12%; in [3] (setting [24]) it was -0.995%; in assay [6] (setting [27]) it was 2.01%; in assay [11] (setting [32]) it was -1.48%; in [12] (setting [33]) it was -2.6%. Also, in [7], the “% GPCR activation compared to TPA” value is reported as -1.375%.
Turning to `CCC(CC)COC(=O)[C@H](C)N[P@](=O)(OC[C@H]1O[C@@](C#N)(c2ccc3c(N)ncnn23)[C@H](O)[C@@H]1O)Oc1ccccc1` [remdesivir], the activation at 10 µM in [1] (setting [22]) was 1.7%; in assay [4] (setting [25]), -0.473%; in assay [5] (setting [26]), 1.78%; in [8] (setting [28]), -7.9%; in assay [8] (setting [29]), 1.09%; in [9] (setting [30]) it was -1.5%. Further, the activation at 10 µM in assay [10] (setting [31]) is -2.6%. For the same compound, the activation at 100 µM in assay [2] (setting [23]) is 0.785%; in assay [3] (setting [24]), 1.07%; in assay [6] (setting [27]), 2.44%; in assay [11] (setting [32]), -2.35%; in assay [12] (setting [33]), -2.35%. In addition, in assay [7], the “% GPCR activation compared to TPA” value came to 10.99%.
In the case of `N#C[C@@]1(c2ccc3c(N)ncnn23)O[C@H](CO)[C@@H](O)[C@H]1O` [GS441524], the activation at 10 µM in assay [1] (setting [34]) is 2.26%; in assay [4] (setting [15]), -1.93%; in [5] (setting [16]), 1.37%; in assay [8] (setting [18]), -7.33%; in [8] (setting [35]), 0.817%; in [9] (setting [36]), -1.67%. In addition, the activation at 10 µM in assay [10] (setting [19]) is -1.6%. Besides, the activation at 100 µM in [2] (setting [13]) was -0.422%; in [3] (setting [14]), -0.968%; in [6] (setting [17]), 0.894%; in [11] (setting [20]), -2.05%; in assay [12] (setting [21]) it was -1.68%. The “% GPCR activation compared to TPA” value in assay [7] was -8.135%.
For the compound `CC(C)C(=O)OC[C@H]1O[C@@H](n2ccc(NO)nc2=O)[C@H](O)[C@@H]1O` [molnupiravir], the activation at 10 µM is -4.7% in [1] (setting [34]); -0.168% in [4] (setting [15]); -4.1% in [5] (setting [16]); -1.75% in [8] (setting [18]); -1.23% in [8] (setting [35]); -0.00488% in assay [9] (setting [36]). Further, the activation at 10 µM in [10] (setting [19]) was -3.46%. Besides, the activation at 100 µM in assay [2] (setting [13]) was -0.864%; in assay [3] (setting [14]), -0.742%; in assay [6] (setting [17]), -0.581%; in assay [11] (setting [20]), -3.32%; in [12] (setting [21]), -1.53%. Also, in assay [7], the “% GPCR activation compared to TPA” value was -1.8016%.
